“Also recorded” adds a separate entry of the source.

For one assay, the system named is cynomolgus monkeys. Description: Monkey spontaneous eye blink rate (EBR). It counts as in vivo, Macaca fasicularis. Conditions: cynomolgus monkey; for EBR response on repeated daily dosing (3 days): n = 3, A-77636 s.c., PF-2334 oral 0.6 + 0.3 mg/kg. Here is the method: Increase in spontaneous EBR has been previously shown with D1 agonists and partial agonists. To confirm the specificity of the response in our particular assay set up for D1 activation, we verified that the D1 receptor antagonist SCH-39166 fully blocks the increased eye blink response of non-catechol full D1 agonist that is a close structural analog of the compounds in this paper (data not shown). All procedures involving animals were conducted with approval of the Pfizer Institutional Animal Care and Use Committee (Groton, CT) and compliant with the regulations and standards of the Animal Welfare Act (9CFR2, 9CFR3). Three male Cynomolgus macaques (Macaca fasicularis) of Mauritian origin, 7–10 years old, SPF for CHV-1, SIV, STLV1 and SRV 1, 2, 5 were used. Animals were exposed to 12 h light/dark cycle (lights on 6:00 AM – 6:00 PM). […] EBRS were recorded from chaired animals for 2 min at 10 min intervals by a trained observer through direct visual observation who was blinded to experimental conditions. Animals were chaired at approximately 7:30 AM. After vehicle or compound administration, eye blinks were recorded during the following intervals: from 10 to 50 min (0–1 h), 130 to 170 min (2–3 h), 310 to 350 min (5–6 h). Animals were returned to their home cages between two consecutive sessions and after the final recording of the day. Blood samples (1 ml) were collected from the femoral vein at 1 and 5 h after the first dose to quantitate plasma compound levels. […] A77636 was dissolved in 0.9% sterile saline, formulated fresh prior to administration, and given once per day for 3 days. […] Vehicle control was administered on day 0.
EBR data were first converted to blinks per minute. EBR were averaged by binning into 3 periods: Period 1 (0–1 h after the first dose) EBR = mean of 10, 20, 30, 40, and 50 min recordings; Period 2 (2–3 h after the first dose) EBR = mean of 130, 140, 150, 160, and 170 min recordings; Period 3 (5–6 h after the first dose) EBR = mean of 310, 320, 330, 340, and 350 min recordings. For Fig. 5c EBR data were averaged by binning data from periods 1 through 3 as daily EBR. Data from each animal was then normalized to their respective Day 1 EBR and expressed as percent of Day 1 EBR for each drug. EBR data were analyzed with SAS® 9.4 (SAS Institute Inc. Cary, NC) using a mixed linear model (Mixed Procedure) for repeated measures. The model included treatment, day, time period, and their interactions as fixed effects, and animal and animal-by-day interaction as random effects. A first order autoregressive model was used for longitudinal covariance structure. Differences between least squares means across days, overall and for each time period, were tested and adjusted for multiple comparisons via Tukey method. […]

The subject of assay [1] is rats with unilateral 6-OHDA lesions. Description: Rat unilateral 6-OHDA lesion model, contralateral rotations. It counts as in vivo, Sprague-Dawley rat. The settings on record: for contralateral rotational behavior on repeated dosing: 6-OHDA lesioned rats, six doses every 12 h, A-77636 0.32 mg/kg s.c., PF-2334 10.78 mg/kg oral; for pairwise contrast of rotational speed, estimate: 6-OHDA rats. On the procedure:
Sprague-Dawley rats with 6-OHDA lesions were obtained from Taconic (Rensselaer, NY). For the lesion surgery rats (~175 g) were anesthetized with isoflurane and given desipramine to protect noradrenergic neurons (10 mg/kg). The medial forebrain was targeted using AP:−4.3 mm; ML:−1.2 mm; DV:8.3 mm using a 30 G cannula. […] The cannula was left in place post-infusion for 5 min. To assess the extent of the lesion animals were given an apomorphine (0.05 mg/kg S.C.) challenge 21 day after the lesion surgery. Matched sham lesioned animals from the same source received exactly the same procedures except saline was infused into the brain. Only animals with more than 180 contralateral rotations over 30 min or more than 30 rotations in multiple 5 min intervals were used for the study. Experiments began 12 weeks after lesion.
Rats with sham (n = 20) and unilateral 6-OHDA lesions (n = 17) were obtained and four weeks after lesion used for the study. […] Animals followed a normal light cycle (6:00 AM lights on and 6:00 PM lights off). Animals were provided with food and water ad libitum in the chambers. Activity was monitored with infrared ceiling cameras (Y-cam, London, UK) and rotational behavior was quantified by automated movie analysis via validated custom software. Animals were acclimated and recorded for 2 h to the test chambers prior to the first dose.
Rotational behavior was detected using custom software written in Python language, version 2.7. OpenCV library, version 2.10 was used for video analyses[73],[74]. R software, version 3.1.0, was used for statistical analyses. Rotational behavior is described as the average number of rotations per minute (RPM) during the 6 h period immediately following each dose. To quantify changes within each treatment group as well as differences between treatments over time we used a longitudinal mixed model two-way ANOVA[75] with time, treatment, and their interaction as fixed factors and animal as a random factor. Least-squares means for specified factors were estimated using lsmeans library. Post-hoc comparisons to reference time point were adjusted for multiple hypothesis testing via Dunnett′s method. All statistical tests were performed two-tailed at a 5% level of significance.

The next assay has as its system human D1R T59A mutant. Description: cAMP assay, D1R mutant T59A. Conditions: relative to wild-type D1R; each table line is one experiment (Experiment # 1-6). For orientation: Changes in cAMP serve as a functional read-out for many G protein-coupled receptors.
In the next assay the test system is human D1R V270A mutant. The assay can be described thus: cAMP assay, D1R mutant V270A. Conditions: relative to wild-type D1R; each table line is one experiment (Experiment # 1-6).

With `NC[C@@H]1O[C@H](C23CC4CC(CC(C4)C2)C3)Cc2c1ccc(O)c2O` [A-77636, reference compound], the “EBR response on repeated daily dosing (3 days)” value in the assay on cynomolgus monkeys is “progressively and significantly attenuated with each dosing day”. Besides, the “increase of spontaneous EBR over baseline after single dose” value in the assay on cynomolgus monkeys (A-77636 s.c. (0.1 mg/kg as printed elsewhere in the source), PF-2334 oral 0.6 mg/kg + 0.3 mg/kg 8 h later) is reported as 2–3 fold. Moreover, the “contralateral rotational behavior on repeated dosing” value in assay [1] is listed as “essentially zero contralateral rotational behavior”.

Turning to `Cc1cc(Oc2cccc(O)c2O)ccc1-c1c(C)ncnc1C` [PF-1437], the “fold shift of cAMP functional potency, T59A (EC50 mutant/ EC50 WT)” value in the assay with human D1R T59A mutant amounted to 0.2. Further, in the assay with human D1R V270A mutant, the “fold shift of cAMP functional potency, V270A (EC50 mutant/ EC50 WT)” value is 0.6.

As to `Cc1cc(Oc2nccc3occc23)ccc1-c1c(C)ncc2nccn12` [PF-6142], the “fold shift of cAMP functional potency, T59A (EC50 mutant/ EC50 WT)” value in the assay on human D1R T59A mutant turned out to be 1.0. The “fold shift of cAMP functional potency, V270A (EC50 mutant/ EC50 WT)” value in the assay on human D1R V270A mutant stood at 1.7.

`Cc1n[nH]c(=O)c(C)c1-c1ccc(Oc2nccc3occc23)cc1F` [PF-2334]: the “EBR response on repeated daily dosing (3 days)” value in the assay on cynomolgus monkeys was “sustained after multiple days of dosing”. Further, the “contralateral rotational behavior on repeated dosing” value in assay [1] was “significantly greater rotational behavior than A-77636 treated animals; also recorded: still displaying contralateral rotational behavior following the 6th dose”. The “pairwise contrast of rotational speed, estimate” value was 0.4016 in assay [1] (PF-2334 10.78 mg/kg p.o. every 12 h, contrast (time range, hours) 24 - 36, least-squares means); 0.3322 in assay [1] (PF-2334, contrast (hours) 24 - 48); 0.371 in assay [1] (PF-2334, contrast (hours) 24 - 60); 1.093 in assay [1] (PF-2334, contrast (hours) 24 - 72 (72 h = quinpirole dose)); -0.06943 in assay [1] (PF-2334, contrast (hours) 36 - 48); -0.03066 in assay [1] (PF-2334, contrast (hours) 36 - 60). Also, the “pairwise contrast of rotational speed, estimate” value in assay [1] (PF-2334, contrast (hours) 36 - 72 (72 h = quinpirole dose)) is reported as 0.6914; in assay [1] (PF-2334, contrast (hours) 48 - 60), 0.03877; in assay [1] (PF-2334, contrast (hours) 48 - 72 (72 h = quinpirole dose)), 0.7609; in assay [1] (PF-2334, contrast (hours) 60 - 72 (72 h = quinpirole dose)), 0.7221.

(Values after article PMC5813016 (Nature Communications, 2018).)
